Measurements as given in patent US7947312B2, “Method of preparation and composition of a water soluble extract of the bioactive component of the plant species Uncaria for enhancing immune, anti-inflammatory, anti-tumor and DNA repair processes of warm blooded animals” (priority 2002, dated 2011).

Key:
[1] = system: NF-κB dependent Igκ-chain expression in 70Z/3 cells; experiment: LPS-induced Igκ-chain expression in 70Z/3 cells (flow cytometry, 7AAD); type: cell-based
Experimental: FIG. 5B illustrates 70Z/3 cells (2×10^5) that were pretreated for 4 h with C-MED-100® or QA before activation for 20 h with LPS (25 μg/ml). The cells were thereafter stained with 7AAD and Igκ-antibodies and analyzed by flow cytometry. The results are mean Igκ-positive cells±S.D. (left panel) and mean 7AAD negative cells±S.D. (right panel) of duplicate cultures from one representative experiment out of two performed.
Cell cultures: Raji human Burkitt's lymphoma (CCL-86), Jurkat human acute T-cell leukemia (TIB-152), 70Z/3 mouse pre-B lymphocyte cell line (TIB-158), or mouse spleen cells were used in the experiments. The cells were cultured in RPMI medium (Life Technologies) supplemented with 10% FCS, 10 mM HEPES buffer, antibiotics, 50 μM 2-mercaptoethanol and 1 mM sodium pyruvate (all supplements from Life Technologies) at 37° C., 5% CO2. The number of Raji cells in duplicate cultures were determined with a Coulter Z1 cell counter (Beckman Coulter Inc, Fullerton, Calif., USA) three times each. The number of viable and dead cells were determined using trypan blue exclusion, by counting three independent samples from duplicate cultures. […] Proliferation was detected by measuring thymidine incorporation after a 4 hours pulse with 1 μCi ^3[H]-thymidine (Amersham Pharmacia).

IκBα = experiment: Western blotting of IκBα and phosphorylated IκBα in LPS-stimulated 70Z/3 cells; type: cell-based, mouse; settings: QA 2 mg/ml or PDTC 100 μM
Experimental: FIGS. 5C and 5D illustrate 70Z/3 cells (5×10^6) that were pre-treated with QA (2 mg/ml) or with PDTC (100 μM) as a positive control for two hours and thereafter stimulated with LPS (25 μg/ml) for the indicated time. Cytoplasmic extracts equalized for protein concentration were analyzed by western blotting using IκBα-specific antibodies. One representative experiment out of three (FIG. 5C) and one representative experiment out of two (FIG. 5D) are presented.
Preparation of cell extracts: The 70Z/3 cells were pretreated with QA (1 or 2 mg/ml) or with PDTC for 2 hours before they were stimulated with LPS for various time points. Whole cell extracts from the 70Z/3 cells (1×10^6) were prepared for analysis of the NF-κB signaling pathway. The cells were washed twice in PBS, resuspended in lysis buffer (75 mM Tris-HCl (pH 8.0), 100 mM NaCl, 5 mM KCl, 3 mM MgCl2, 2% NP-40, 1 mM PMSF and a protease inhibitor cocktail) (Roche Diagnostics Scandinavia AB) and incubated on ice for 10 min. The cell debris was pelleted and the supernatants were stored at −70° C. until Western Blot was performed.
Western blotting: Cellular extracts from 70Z/3 cells were separated on a 10% SDS polyacrylamide gel and the proteins were transferred to a nylon membrane. After blocking overnight in 5% dry fat-free milk in TBST, the membrane was incubated for 2 hrs with primary antibodies specific either to IκBα or to phosphorylated IκBα (both from Cell Signaling Technology Inc, Beverly, Mass.). The membranes were thereafter washed three times in TBST, and incubated with HRP-conjugated goat anti-rabbit antibodies (Amersham Pharmacia). The membranes were washed three times and chemoluminescence was detected using the ECL-reagent (Amersham Pharmacia) and x-ray film (CEA AB, Strängnäs, Sweden).

C57BL/6 mice = experiment: Mice treated via drinking water for 21 days: spleen cells, blood cells, weights; type: in vivo, mouse
Experimental: Mice were treated with indicated concentrations of QA or C-MED-100® in the drinking water for 21 days, sacrificed and absolute number of spleen cells counted using trypan blue exclusion. The presented data are mean cell numbers±S.D. pooled from five experiments (water, n=21; C-MED-100® 4 mg/ml, n=24; C-MED-100® 8 mg/ml, n=9; QA 1 mg/ml, n=9; QA 2 mg/ml, n=22; QA 4 mg/ml, n=10). Statistically significant differences compared to control mice supplemented with tap water are indicated. […] The data are presented as the mean number of cells/ml±S.D. from five experiments (water, n=21; C-MED-100® 4 mg/ml, n=24; C-MED-100® 8 mg/ml, n=9; QA 1 mg/ml, n=9; QA 2 mg/ml, n=22; QA 4 mg/ml, n=10). Statistically significant differences compared to control mice supplemented with tap water are indicated. Materials and Methods: C57BL/6 females were bought from […], Denmark and used in experiments at an age of 6-10 weeks. The animals were kept in a SPF facility at Lund University, Lund, Sweden. The use of laboratory animals complies with the guidelines of the European Community and was approved of by the local ethical committee. In vivo treatment: Mice were fed with C-MED-100® and QA (Sigma-Aldrich), dissolved in autoclaved tap water at indicated concentrations, for 21 days. The drinking water bottles were changed every third day. The animals were then sacrificed, the spleens removed and blood samples collected. The blood samples were analyzed in a Sysmex KX-21N cytometer (Sysmex Corporation, Kobe, Japan).

O=C(O)C1(O)CC(O)C(O)C(O)C1 (stereo not drawn) [QA, 1,3,4,5-tetrahydroxy-cyclohexanecarboxylic acid]
cell death in 70Z/3 cells (7AAD) [1]: without causing cell death
LPS-induced Igκ-chain expression ([1]; 70Z/3 cells, 4 h pretreatment, LPS 25 μg/ml 20 h): inhibited Igκ-chain expression to a similar extent
phosphorylation of IκBα (IκBα): did not affect the phosphorylation of IκBα
LPS-induced breakdown of IκBα (IκBα; 2 h pretreatment): inhibited the LPS-induced breakdown of IκBα
number of spleen cells (C57BL/6 mice; 2 mg/ml in drinking water, 21 days): significantly increased number of spleen cells
body weight (C57BL/6 mice; 4 mg/ml in drinking water): significantly reduced
WBC and blood lymphocytes in peripheral blood (C57BL/6 mice; 4 mg/ml in drinking water, vs normal control animals): this increase was significant
absolute numbers of lymphocyte subsets CD4+ T cells, CD8+ T cells and B cells in spleen (C57BL/6 mice; drinking water 21 days (FIG. 6B)): this was also the case
WBC, blood lymphocytes, RBC in peripheral blood (C57BL/6 mice; drinking water 21 days, indicated concentrations): increasing number of WBC and blood lymphocytes
